Experimental data reported in ChEMBL document CHEMBL1772933, “Didemnidines A and B, indole spermidine alkaloids from the New Zealand ascidian Didemnum sp” (J Nat Prod, 2011).
Calls of active or inactive are those of the source. The rule behind the calls is not given here.

Tests used:
[1] = system: Trypanosoma cruzi; test: Antiparasitic activity against intracellular amastigotes of Trypanosoma cruzi Tulahuen C2C4 expressing LacZ gene infected in rat L6 cells after 96 hrs by photometrically; assay type: functional, organism-based; conditions: Tulahuen C2C4, L6, 96 h
[2] = biological target: T1, Phospholipase A2 (Apis mellifera) (UniProt P00630); test: Inhibition of Apis mellifera venom PLA2 by colorimetric bioassay
T1 sequence (whole entry): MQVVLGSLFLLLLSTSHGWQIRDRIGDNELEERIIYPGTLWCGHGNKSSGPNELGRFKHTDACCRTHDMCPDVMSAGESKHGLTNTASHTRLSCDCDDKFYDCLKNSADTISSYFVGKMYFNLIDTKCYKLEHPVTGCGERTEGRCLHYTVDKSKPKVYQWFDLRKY

[3] = system: Saccharomyces cerevisiae; test: Inhibition of yeast FTase in presence of farnesyl pyrophosphate
[4] = system: Plasmodium falciparum; test: Antimalarial activity against chloroquine- and pyrimethamine-resistant Plasmodium falciparum K1 assessed as [3H]-hypoxanthine incorporation after 48 hrs by liquid scintillation counting; assay type: functional, organism-based
[5] = system: L6; test: Cytotoxicity against rat L6 cells after 72 hrs by alamar blue assay; assay type: cell-based; conditions: L6, 72 h
[6] = system: Neutrophil; test: Inhibition of PMA-stimulated superoxide production in human neutrophils assessed as respiratory burst; assay type: functional, cell-based
[7] = system: Leishmania donovani; test: Antiprotozoal activity against Leishmania donovani MHOM/ET/67/L82 after 72 hrs by fluorimetry; assay type: functional, organism-based; conditions: MHOM/ET/67/L82, 72 h
[8] = system: Trypanosoma brucei rhodesiense; test: Antiparasitic activity against bloodstream form of Trypanosoma brucei rhodesiense STIB 900 after 72 hrs by microplate reader assay; assay type: functional, organism-based; conditions: STIB 900, 72 h

Row | SMILES | IC50 [1] | inhibition [2] | inhibition [3] | IC50 [4] | IC50 [5] | inhibition [6] | IC50 [7] | IC50 [8]
1 | NCCCCNCCCNC(=O)C(=O)c1c[nH]c2ccccc12 [DIDEMNIDINE A] | 130 µM | inactive | inactive | 41 µM | 24 µM | inactive | > 180 µM | 59 µM
2 | Cn1cncc1C1=C(c2c[nH]c3cc(Br)ccc23)C(=O)NC1=O |  |  |  |  |  | inactive |  | 
3 | CC(C)(C)OC(=O)NCCCCNCCCNC(=O)C(=O)c1c[nH]c2ccccc12 | 88 µM | inactive | inactive | 32 µM | 73 µM | inactive | > 190 µM | 34 µM
4 | NCCCCNCCCNC(=O)C(=O)c1c[nH]c2cc(Br)ccc12 [DIDEMNIDINE B] | 82 µM | inactive | inactive | 15 µM | 25 µM | inactive | > 160 µM | 44 µM
5 | O=C1NC(=O)C(c2c[nH]c3cc(Br)ccc23)=C1c1cnc[nH]1 |  |  |  |  |  | inactive |  | 
6 | COc1cc([C@@H]2c3cc4c(cc3[C@H](O)[C@H]3COC(=O)[C@H]23)OCO4)cc(OC)c1OC [PODOFILOX] |  |  |  |  | 0.01 µM |  |  | 
7 | O=C(Cn1ccnc1[N+](=O)[O-])NCc1ccccc1 [BENZNIDAZOLE] | 1.35 µM |  |  |  |  |  |  | 
8 | Cn1cncc1C1=C(c2c[nH]c3ccccc23)C(=O)NC1=O |  |  |  |  |  | inactive |  | 
9 | O=C1NC(=O)C(c2c[nH]c3ccccc23)=C1c1cnc[nH]1 |  |  |  |  |  | inactive |  | 
10 | CCCCCCCCCCCCCCCCOP(=O)([O-])OCC[N+](C)(C)C [MILTEFOSINE] |  |  |  |  |  |  | 0.52 µM | 
11 | CC(C)(C)OC(=O)NCCCCNCCCNC(=O)C(=O)c1c[nH]c2cc(Br)ccc12 | 28 µM | inactive | inactive | 8.4 µM | 25 µM | inactive | > 160 µM | 9.9 µM
